79 compounds from the METLIN SMRT retention time set (Domingo-Almenara et al. 2019) can be followed below.

This series is described as follows: gradient 5% acetonitrile 3 min, to 50% in 2 min, to 85% in 15 min, held 3 min, 100 µL/min. The settings on record: column: Zorbax Extend-C18 2.1 x 50 mm; eluents: water / acetonitrile, 0.1% formic acid. The method, boiled down: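 Mixtures of ~100 pure standards were chromatographed on a Zorbax Extend-C18 column (2.1 × 50 mm, 1.8 μm) at 100 μL/min using water and acetonitrile, each with 0.1% formic acid. Detection used a quadrupole time-of-flight mass spectrometer in positive and negative ionization mode, and data collection spanned 3 months. Retention time was obtained from adduct peaks picked computationally and each checked manually.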
Take `CCOC(=O)C1CCN(C(=O)c2cn(-c3cc(N4CCSCC4)ncn3)cn2)CC1`: the RP-LC retention time amounted to 791 s.

For the compound `CCCCC(=O)Nc1nc(-c2ccc3c(c2)N(CCC)C(=O)CO3)cs1`, the RP-LC retention time came to 1010 s.

Compound `O=C(Nc1ccccc1Cl)C(=O)c1cn(CC(=O)N2CCCC2)c2ccccc12` yielded an RP-LC retention time of 1070 s.

Compound `N#CCc1ccc(NC(=O)C2CCCN(S(=O)(=O)Cc3ccc(F)cc3)C2)cc1` (centres undefined) yielded an RP-LC retention time of 884 s.

In the case of `Cc1ccc(-n2nc(N3CCCN(S(=O)(=O)c4ccccc4C)CC3)ccc2=O)cc1`, the RP-LC retention time stood at 910 s.

In turn, `Cc1cc(C)c(-c2noc(C)n2)c(NC(=O)c2ccc(Cl)cc2)n1` gave an RP-LC retention time of 790 s.

In turn, `COc1ccc(-c2cn3c(CC(=O)Nc4ccccc4F)csc3n2)cc1OC` showed an RP-LC retention time of 724 s.

Consider `CCCCS(=O)(=O)N1CCCC(c2nnc(C)s2)C1` (centres undefined), for which the RP-LC retention time was 689 s.

Compound `CC(C)NC(=O)c1ccc2c(c1)CCCN2C(=O)c1ccc(F)cc1` had an RP-LC retention time of 784 s.

In the case of `O=C(Nc1nc2ccccc2s1)C1CCN(C(=O)c2cccc(F)c2)CC1`, the RP-LC retention time is 821 s.

As for `CCn1cc(S(=O)(=O)N2CCN(c3ccccc3)CC2)c2cccnc21`, the RP-LC retention time was 969 s.

Compound `Cc1nc(-c2csc(S(=O)(=O)N3CCC(C(=O)Nc4ccc(C(C)C)cc4)CC3)c2)no1` came in with an RP-LC retention time of 1090 s.

Compound `CCCCOc1ccc(C(=O)NC2(c3nc(CC)no3)CCCCC2)cc1` showed an RP-LC retention time of 1160 s.

`CC1CCN(S(=O)(=O)c2ccc(-c3nnc(C(=O)NCC(C)c4ccccc4)o3)cc2)CC1` (centres undefined) came in with an RP-LC retention time of 1140 s.

As to `CCn1cc(CN2CCC(C(=O)NCCCN3CCOCC3)CC2)c2cc(Cl)ccc21`, the RP-LC retention time amounted to 585 s.

Regarding `CNC(=O)CCc1nc2ccccc2n(CC(=O)NCCCc2ccccc2)c1=O`, the RP-LC retention time is 704 s.

`COc1cc(C(c2nnnn2C(C)(C)C)N2CCN(c3ccccn3)CC2)cc(OC)c1OC` (centres undefined) yielded an RP-LC retention time of 578 s.

As for `COCC(=O)Nc1cc(=O)n(C)c(=O)n1C`, the RP-LC retention time worked out at 552 s.

With `COc1ccc(-c2nc(-c3ccc4ncn(C(C)C)c4c3)no2)c(OC)c1`, the RP-LC retention time worked out at 729 s.

In turn, `CC(C)N1C(=O)C(C)N(C(=O)NC2CCCC2)c2cccnc21` (centres undefined) registered an RP-LC retention time of 924 s.

As for `Cn1nc(N2CCC(NC(=O)Cc3c[nH]c4ccccc34)C2)ccc1=O` (centres undefined), the RP-LC retention time was 632 s.

In the case of `Cc1ccc(NC(=O)C2CCN(S(=O)(=O)c3cc(C(=O)N(C)C)cs3)CC2)c(C)c1`, the RP-LC retention time came out at 804 s.

Compound `Cc1nc(N2CCN(c3ccccn3)CC2)nc2c1C(=O)CC(c1ccccc1F)C2` (centres undefined) came in with an RP-LC retention time of 735 s.

`CCc1ccc(NC(=O)CCS(=O)(=O)c2ccc3c(c2)CCCN3C(C)=O)cc1` gave an RP-LC retention time of 808 s.

Compound `O=C(c1ccc2cc[nH]c2c1)N1CCC2(CC1)N=C(c1ccccc1)NO2` displayed an RP-LC retention time of 770 s.

The compound `O=C(Cn1nc2c(c1NC(=O)c1c(F)cccc1Cl)CSC2)NCc1ccco1` displayed an RP-LC retention time of 750 s.

`CC(=O)NCc1nc(-c2ccc(N3CCSCC3)nc2)no1` registered an RP-LC retention time of 653 s.

Consider `CCN(CCNC(=O)c1cc(=O)n(C)c2c1c(=O)n(C)c(=O)n2C)Cc1ccccc1`, for which the RP-LC retention time was determined as 646 s.

For `O=C(c1ccnc(N2CCNC(c3ccccc3)C2)c1)N1CCN(c2ncccn2)CC1` (centres undefined), the RP-LC retention time was 608 s.

The compound `CCOc1ccc(-c2nc(Cc3noc(-c4cccc(OC)c4)n3)c(C)o2)cc1` displayed an RP-LC retention time of 1220 s.

`O=C(CC1=C2CCCCC2NC1=O)Nc1cccc(F)c1` (centres undefined) had an RP-LC retention time of 719 s.

Compound `CCN(CC)CCNC(=O)c1nnc(-c2ccc(S(=O)(=O)N3CCC(C)CC3)cc2)o1` had an RP-LC retention time of 696 s.

For the compound `Cn1nc2n(c1=O)CCN(C(=O)Cc1cccs1)CC2`, the RP-LC retention time was found to be 610 s.

With `COc1cc2c(Oc3ccc4[nH]c(C)cc4c3F)ncnc2cc1OCCCN1CCCC1`, the RP-LC retention time came to 709 s.

Compound `Cc1ccc(Cl)cc1N1CCN(C(=O)CCc2nnc3c4cc(-c5ccccc5)nn4ccn23)CC1` had an RP-LC retention time of 999 s.

`CC(=O)N1CCC2(CC1)CC(CC(=O)O)CCO2` (centres undefined) displayed an RP-LC retention time of 588 s.

`CCc1noc(NC(C)=O)c1-c1ccc(OC)c(S(=O)(=O)N2CCN(c3ccccc3)CC2)c1` had an RP-LC retention time of 895 s.

Compound `CC(C)n1nc(CNC(=O)c2cccs2)c2ccccc21` showed an RP-LC retention time of 845 s.

Take `COc1cccc(-n2c(=O)c3sccc3n(Cc3nc(-c4cccc(C)c4)no3)c2=O)c1`: the RP-LC retention time was determined as 978 s.

Turning to `Cc1cc2c(cc1C(=O)NCCc1c[nH]c3ccccc13)OCCCO2`, the RP-LC retention time was found to be 824 s.

Regarding `O=C(NCCC1=CCCCC1)C1CCCN(c2nccn3nc(-c4ccccc4Cl)cc23)C1` (centres undefined), the RP-LC retention time was 1090 s.

Consider `COc1ccccc1-n1ccn(Cc2nc(-c3ccc(C(C)(C)C)cc3)no2)c(=O)c1=O`, for which the RP-LC retention time came out at 1020 s.

The compound `CCCCC1CCC(C(=O)Nc2nc(-c3ccc4c(c3)NC(=O)CO4)c(C)s2)CC1` (centres undefined) returned an RP-LC retention time of 1240 s.

On to `CCc1noc(-c2nc(-c3ccccc3OC)no2)n1`, for which the RP-LC retention time turned out to be 986 s.

For `Cc1cc(C)n(-c2ccnc(N3CCC(C(=O)N4CCCC4)CC3)n2)n1`, the RP-LC retention time was found to be 739 s.

As to `Cc1ccc2c(Nc3cc(F)ccc3F)c(C(=O)N3CCCC3)cnc2n1`, the RP-LC retention time worked out at 584 s.

`CCCNc1cc(N2CCCC(CCC(=O)Nc3ccc4c(c3)OCO4)C2)ncn1` (centres undefined) yielded an RP-LC retention time of 691 s.

`O=C(NCc1ccccn1)C1CCCN(c2ccc(Sc3ccc(Br)cc3)nn2)C1` (centres undefined): the RP-LC retention time was 702 s.

Take `CC(c1ccccc1)n1cnc2c(oc3ccccc32)c1=O` (centres undefined): the RP-LC retention time was 859 s.

`O=C(Cc1ccccc1Cl)N1CCN(S(=O)(=O)C2CC2)CC1` returned an RP-LC retention time of 733 s.

Turning to `COc1ccc(-c2nnc(-c3cccnc3NCCC3=CCCCC3)o2)cc1`, the RP-LC retention time came to 1330 s.

`CCOc1ccc(-c2cc3c(=O)n(Cc4nc(-c5ccccc5Br)no4)ncn3n2)cc1` gave an RP-LC retention time of 1160 s.

Compound `CC(C)c1cccc(NC(=O)Cn2nc3n(c2=O)CCCCC3)c1` showed an RP-LC retention time of 700 s.

Compound `CN1CCN(C(CNC(=O)c2ccc(Cl)cc2)c2ccc(N(C)C)cc2)CC1` (centres undefined) came in with an RP-LC retention time of 557 s.

For the compound `CNC(=O)C1CN(C(=O)Nc2cc(OC)cc(OC)c2)CC12CCCC2` (centres undefined), the RP-LC retention time worked out at 683 s.

As to `O=C(NC1CCCCC1)N1CCC(c2noc(-c3cccnc3)n2)C1` (centres undefined), the RP-LC retention time came to 749 s.

Consider `O=C(c1cccc(Cl)c1)N1CCN(c2nc(CN3CCOCC3)cs2)CC1`, for which the RP-LC retention time was determined as 623 s.

Turning to `CSc1ccc(CNC(=O)c2c(C)sc3ccn(C)c(=O)c23)cc1`, the RP-LC retention time stood at 784 s.

In turn, `O=S(=O)(c1cc(-c2nnc(C3CC3)o2)co1)N1CCN(c2ccccc2F)CC1` returned an RP-LC retention time of 986 s.

In the case of `COC(=O)c1ncn2c1C(=O)N(Cc1ccccc1)C(C)(C(=O)NCc1ccccc1)C2` (centres undefined), the RP-LC retention time is 715 s.

`CCNC(=O)N1CCc2c(c(-c3nc(-c4ccc(F)cc4)no3)nn2C)C1` gave an RP-LC retention time of 788 s.

The compound `Cc1ccnc(Nc2nc(-c3ccccc3C)cs2)c1` had an RP-LC retention time of 821 s.

In turn, `O=C(Nc1nnc(-c2cccs2)o1)c1cc(Cl)ccc1Cl` yielded an RP-LC retention time of 764 s.

On to `CC(=O)c1ccc(NC(=O)Cn2nc3c(N(C)C4CCCCC4)nccn3c2=O)cc1`, for which the RP-LC retention time came to 705 s.

`O=C1CC(c2ccccc2)Cc2[nH]c(=O)c(C(=O)Nc3cccc(C(F)(F)F)c3)cc21` (centres undefined) gave an RP-LC retention time of 1020 s.

`Cc1ccn2c(NC(=O)C3CCCCC3)c(-c3ccc(F)cc3)nc2c1`: the RP-LC retention time was 657 s.

`CC(C)N1C(=O)Cc2ccccc2C1C(=O)NCc1ccc(F)cc1` (centres undefined) showed an RP-LC retention time of 796 s.

For the compound `Cc1cccc(CNC(=O)C2CCN(CCc3cn(C)c4ncccc34)CC2)c1`, the RP-LC retention time came out at 626 s.

As for `O=C(COc1ccccc1)N1CCC(CNS(=O)(=O)Cc2cccc(F)c2)CC1`, the RP-LC retention time worked out at 782 s.

`O=c1c2sccc2n(Cc2nc(-c3ccccc3)no2)c(=O)n1CCc1ccccc1` came in with an RP-LC retention time of 1130 s.

`COc1ccc(CC(=O)NC(C)C(=O)Nc2nc3ccccc3[nH]2)cc1Cl` (centres undefined) registered an RP-LC retention time of 671 s.

In turn, `CCOc1ccc(CC(=O)N2CCCn3nc(-c4cccs4)cc3C2)cc1` returned an RP-LC retention time of 850 s.

With `COc1ccccc1NC(=O)Cn1nc2c(Oc3ccc(Cl)cc3)nccn2c1=O`, the RP-LC retention time was 859 s.

In the case of `CC(C)(C)c1ccc(S(=O)(=O)N2CCCC2c2nc(-c3ccc(F)cc3)no2)cc1` (centres undefined), the RP-LC retention time amounted to 1310 s.

`CCCN1CCN(CCNc2nnc(-c3nc(C4CC4)no3)c3ccccc23)CC1`: the RP-LC retention time amounted to 597 s.

Consider `COc1ccc(NC(=O)c2ccc(-n3cnc(NC(=O)C4CC4)c3)cc2)cc1Cl`, for which the RP-LC retention time was 780 s.

On to `O=C(Cn1nc2c(Oc3ccc(Cl)cc3)nccn2c1=O)NCc1ccco1`, for which the RP-LC retention time was 804 s.

`O=C(NC1CC1)c1ccc(OCC2CCCN2C(=O)c2ccccc2F)cc1` (centres undefined) yielded an RP-LC retention time of 751 s.

On to `CCN(CC)S(=O)(=O)N1CCC(C(=O)NCCc2ccccc2)CC1`, for which the RP-LC retention time was found to be 817 s.
